The source of these data is patent US7741355B2, “Small-molecule modulators of TRP-p8 activity” (Dendreon Corporation, priority 2006, dated 2010).

Each structure is given as a SMILES string.

T1 sequence (Q7Z2W7 whole entry T58I): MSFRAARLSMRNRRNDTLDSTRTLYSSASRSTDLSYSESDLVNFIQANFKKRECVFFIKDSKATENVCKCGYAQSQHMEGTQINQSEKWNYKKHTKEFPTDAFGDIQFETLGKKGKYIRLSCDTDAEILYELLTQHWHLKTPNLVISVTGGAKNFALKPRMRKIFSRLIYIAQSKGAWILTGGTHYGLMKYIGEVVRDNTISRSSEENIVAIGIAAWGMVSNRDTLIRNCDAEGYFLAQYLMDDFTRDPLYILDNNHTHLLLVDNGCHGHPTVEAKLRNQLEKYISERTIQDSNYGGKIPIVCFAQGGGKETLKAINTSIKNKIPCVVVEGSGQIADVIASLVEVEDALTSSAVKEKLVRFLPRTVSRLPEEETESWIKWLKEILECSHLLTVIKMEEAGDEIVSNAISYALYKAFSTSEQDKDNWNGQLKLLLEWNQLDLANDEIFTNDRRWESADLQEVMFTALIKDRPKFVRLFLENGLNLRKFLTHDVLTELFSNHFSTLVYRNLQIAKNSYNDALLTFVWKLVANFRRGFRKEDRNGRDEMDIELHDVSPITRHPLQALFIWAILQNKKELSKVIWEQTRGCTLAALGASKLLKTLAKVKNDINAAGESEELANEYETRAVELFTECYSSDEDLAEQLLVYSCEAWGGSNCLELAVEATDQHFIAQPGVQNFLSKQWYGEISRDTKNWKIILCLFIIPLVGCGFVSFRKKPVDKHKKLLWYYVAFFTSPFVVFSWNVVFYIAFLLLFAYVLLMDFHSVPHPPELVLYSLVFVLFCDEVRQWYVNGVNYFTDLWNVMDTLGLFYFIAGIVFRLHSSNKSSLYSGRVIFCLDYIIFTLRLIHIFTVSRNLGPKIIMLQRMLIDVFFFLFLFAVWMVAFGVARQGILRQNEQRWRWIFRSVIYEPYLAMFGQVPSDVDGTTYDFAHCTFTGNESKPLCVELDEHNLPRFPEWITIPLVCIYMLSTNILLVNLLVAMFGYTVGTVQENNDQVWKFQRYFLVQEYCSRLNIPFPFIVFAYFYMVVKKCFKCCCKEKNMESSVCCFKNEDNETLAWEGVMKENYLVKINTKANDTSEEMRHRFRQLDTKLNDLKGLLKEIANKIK

The first assay has as its target T1, Trp-p8 (Homo sapiens, UniProt Q7Z2W7, T58I).
T1 construct: expressed in transfected cells; host or cells: CHO (Chinese Hamster Ovary) cells
The experiment in a line: ATP viability assay with CHO/Trp-p8 cells at 37° C. In kind it is cell-based. The conditions noted are these: Table 1, Formula I-A; CHO/Trp-p8 cells, 24-26 hours at 37° C., 50% reduction in relative cell viability; read-out: EC50. An excerpt: Human Trp-p8 transfected CHO cells (referred to herein as CHO/Trp-p8) were generated for use in experiments of the present invention. Expression of Trp-p8 polypeptide in this transfectant and the absence of any endogenous expression in the non-transfected CHO was confirmed by western blot and immunofluorescence using a Trp-p8 specific antibody (GS2.20) as well as the calcium flux assay with Icilin (1-[2-hydroxyphenyl]-4-[3-nitrophenyl]-1,2,3,6-tetrahydropyrimidine-2-one) and menthol (2-isopropyl-5-methyl-cyclohexanol). Non-transfected CHO cells were used to establish the specificity of the effects of the compounds observed with CHO/Trp-p8.
This Example discloses an ATP viability assay suitable for screening for effective Trp-p8 agonists. The ATP viability assay described herein employs CHO cells expressing an exogenous Trp-p8 cDNA. This example further establishes that Trp-p8 agonists of the present invention are effective in decreasing the viability of Trp-p8 expressing cells.
The concentration of intracellular ATP declines very rapidly when metabolically active cells undergo necrosis and/or apoptosis. The ATP concentration and consequently the relative cell viability can be measured by established methods using commercially available reagents. In the agonist screening methodology disclosed herein, a compound that specifically decreases the viability of CHO/Trp-p8 cells is referred to as an agonist.
As a primary screen for efficacy and specificity for agonists, both the non-transfected CHO and CHO/Trp-p8 cells were exposed to 1 or 10 μM of test compounds in 1% dimethylsulfoxide (DMSO) or 1% DMSO (control) in a 96-well black walled, black-bottomed, cell-culture treated plate. DMSO was the solvent for all of the compounds tested. After 24-26 hours at 37° C., the cells were lysed and ATP concentration determined via a chemiluminescence assay using a commercially available reagent kit—Cell Titer-Glo (Promega; Madison, Wis.). […] (EC50 is defined herein as the agonist concentration at which there is a 50% reduction in relative cell viability).
What is called EC50 is the midpoint of the concentration-response curve. On to `COc1ccc(NC(=O)[C@@H]2C[C@H](C)CC[C@H]2C(C)C)c(NC(=O)[C@@H](C)N)c1` [Compound 1, 2-Isopropyl-5-methyl-cyclohexanecarboxylic acid-[2-(2-aminopropionylamino)-4-methoxylphenyl]amide], for which the EC50 is under 20 nM. For `CSc1ccc(NC(=O)[C@@H]2C[C@H](C)CC[C@H]2C(C)C)c(C(=O)NCCN)c1` [Compound 2], the EC50 is under 20 nM. The same measure, in the same setting: the value for `CC(C)[C@@H]1CC[C@@H](C)C[C@H]1C(=O)Nc1ccc2ccccc2c1OCCN` [Compound 3] was under 20 nM. Still for that read-out and setting: the value for `CSc1ccc(NC(=O)[C@@H]2C[C@H](C)CC[C@H]2C(C)C)c(NCCN)c1` [Compound 4, 2-Isopropyl-5-methyl-cyclohexanecarboxylic acid [2-(2-amino-ethylamino)-4-methylsulfanyl-phenyl]amide] was under 20 nM; that for `COc1ccc(NC(=O)[C@@H]2C[C@H](C)CC[C@H]2C(C)C)c(C(=O)NCCN)c1` [Compound 5] was under 20 nM; that for `CC[C@@H](N)C(=O)Nc1cc(OC)ccc1NC(=O)[C@@H]1C[C@H](C)CC[C@H]1C(C)C` [Compound 6] was 21 to 50 nM. On the same count and under the same terms, the value for `COc1ccc(NC(=O)[C@@H]2C[C@H](C)CC[C@H]2C(C)C)c(NC(=O)[C@H](N)CO)c1` [Compound 7] was 21 to 50 nM. In the case of `CC(C)[C@@H]1CC[C@@H](C)C[C@H]1C(=O)Nc1cc2ccccc2cc1NCCN` [Compound 8], the EC50 lay within 21 to 50 nM. Still for that read-out and setting: the value for `CC(C)[C@@H]1CC[C@@H](C)C[C@H]1C(=O)Nc1ccccc1C(=O)NCCN` [Compound 9] was 21 to 50 nM. Same read-out and setting: next, `COc1ccc(NC(=O)[C@@H]2C[C@H](C)CC[C@H]2C(C)C)c(NC(=O)[C@@H](N)CO)c1` [Compound 10]: 21 to 50 nM; `CC(C)[C@@H]1CC[C@@H](C)C[C@H]1C(=O)Nc1ccccc1NC(=O)CN` [Compound 11]: 51 to 100 nM. Turning to `COc1ccc(NC(=O)[C@@H]2C[C@H](C)CC[C@H]2C(C)C)c(NC(=O)[C@H](N)[C@H](C)O)c1` [Compound 12], the EC50 is 51 to 100 nM. Same read-out and setting: next, `COc1ccc(NC(=O)[C@@H]2C[C@H](C)CC[C@H]2C(C)C)c(NC(=O)CN)c1` [Compound 13]: 51 to 100 nM.

The same assay, now with this note: Table 2, Formula I-B; CHO/Trp-p8 cells, 24-26 hours at 37° C., 50% reduction in relative cell viability; read-out: EC50.
As to `CC(C)[C@@H]1CC[C@@H](C)C[C@H]1C(=O)Nc1cc(-c2ccco2)nn1CCN` [Compound 14, 2-Isopropyl-5-methyl-cyclohexane carboxylic acid-[2-(2-amino-ethyl)-5-furan-2-yl-2H-pyrazol-3-yl]-amide], the EC50 was under 20 nM. As to `CC(C)[C@@H]1CC[C@@H](C)C[C@H]1C(=O)Nc1cc(-c2ccccc2)nn1C[C@@H](C)N` [Compound 15], the EC50 is under 20 nM.

Still in this assay, the particulars now being: Table 3, Formula I-C; CHO/Trp-p8 cells, 24-26 hours at 37° C., 50% reduction in relative cell viability; read-out: EC50.
As for `CC(C)[C@@H]1CC[C@@H](C)C[C@H]1C(=O)NCC(NC(=O)[C@@H](C)N)c1ccccc1` (stereo in doubt) [Compound 28, 2-Isopropyl-5-methyl-cyclohexanecarboxylic acid [2-(2-amino-propionylamino)-2-phenyl-ethyl]-amide], the concentration giving a half-maximal response (EC50) is under 20 nM.

The assay is the same for the next values; noted with them: Table 5, Formula I-E; CHO/Trp-p8 cells, 24-26 hours at 37° C., 50% reduction in relative cell viability; read-out: EC50.
In the case of `CCOc1ccc2c(c1)n(CCN)c(=O)n2C(=O)[C@@H]1C[C@H](C)CC[C@H]1C(C)C` (stereo in doubt) [Compound 38, 3-(2-Aminoethyl)-5-ethoxy-1-(2-isopropyl-5-methylcyclohexanecarbonyl)-1,3-dihydro-benzoimidazol-2-one], the EC50 was under 20 nM.

Regarding `CCNC(=O)c1ccc2c(c1)n(CCN)c(=O)n2C(=O)[C@@H]1C[C@H](C)CC[C@H]1C(C)C` (stereo in doubt) [Compound 47, 3-(2-Amino-ethyl)-1-(2-isopropyl-5-methylcyclohexanecarbonyl)-2-oxo-2,3-dihydro-1H-benzoimidazole-5-carboxylic acid ethyl amide], the 50% effective concentration (EC50) was under 20 nM. In the case of `CC(C)[C@@H]1CC[C@@H](C)C[C@H]1C(=O)n1c(=O)n(CCN)c2cc(C(=O)Nc3cccnc3)ccc21` (stereo in doubt) [Compound 48, 3-(2-Amino-ethyl)-1-(2-isopropyl-5-methylcyclohexanecarbonyl)-2-oxo-2,3-dihydro-1H-benzoimidazole-5-carboxylic acid pyridine-3-yl amide], the EC50 was under 20 nM.
